Reference: publication PMC4586312 (Nanomedicine : nanotechnology, biology, and medicine, 2015)
pIC50: −log10 of the molar value.

How the values were obtained:
cathepsin B [1] = target: T1, cathepsin B (Homo sapiens, UniProt P07858); assay: fluorogenic substrate cleavage assay; format: biochemical
cathepsin B [2] = target: T1, cathepsin B; assay: fluorescence protease assay; format: biochemical

Row | Structure (SMILES) | fluorogenic substrate cleavage assay (cathepsin B [1]) | pIC50 (cathepsin B [2])
1 | Cc1cc(=O)oc2cc(NC(=O)[C@H](CCCNC(=N)N)NC(=O)[C@H](CC(C)C)NC(=O)OCc3ccccc3)ccc12 [Z-Leu-Arg-AMC] | The cleavage at the site between arginine and AMC dye by cathepsin B resulted in the increase of fluorescence intensity | 
2 | CC(C)C[C@H](NC(=O)OCc1ccccc1)C(=O)N[C@H](C=O)C[C@@H]1CCNC1=O [GC-373] |  | 8.01
